The results in this text go back to paper PMC4891657, “Orexin 2 Receptor Antagonism is Sufficient to Promote NREM and REM Sleep from Mouse to Man” (Scientific Reports, 2016).

The target of experiment [1] is T1, OX2R (Homo sapiens, UniProt O43614).
T1 sequence (O43614 1-444): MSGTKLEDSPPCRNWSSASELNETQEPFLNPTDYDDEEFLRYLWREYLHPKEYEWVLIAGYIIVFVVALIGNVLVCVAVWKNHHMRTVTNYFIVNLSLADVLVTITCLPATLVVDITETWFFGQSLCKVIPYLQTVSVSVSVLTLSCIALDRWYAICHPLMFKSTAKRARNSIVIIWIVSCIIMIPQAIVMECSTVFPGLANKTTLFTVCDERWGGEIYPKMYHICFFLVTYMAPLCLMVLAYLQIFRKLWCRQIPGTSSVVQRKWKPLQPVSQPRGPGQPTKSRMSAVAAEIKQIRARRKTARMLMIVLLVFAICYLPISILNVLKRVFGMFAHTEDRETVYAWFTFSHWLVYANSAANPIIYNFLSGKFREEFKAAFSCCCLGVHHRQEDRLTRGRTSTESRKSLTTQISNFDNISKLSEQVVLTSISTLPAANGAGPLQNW
The experiment is described as follows: Inhibition of orexin-peptide-A-induced calcium mobilization in CHO cells, human OX2R. Format: cell-based. Set-up: expressed in transfected cells; host or cells: CHO-K1. Conditions: for fold OX2R selectivity (Kb): OX1R Kb / OX2R Kb. As for the experimental part: (§1) MK-1064 was evaluated for its ability to inhibit orexin-peptide-A-induced calcium mobilization in CHO cell lines separately expressing OX1R and OX2R from mice, rats, rabbits, dogs, rhesus monkeys and humans.
(§2) Binding and functional blockade of OX1R and OX2R with MK-1064 relative to other 2-SORAs and the DORA, MK-6096, were assessed using membranes from Chinese hamster ovary (CHO)-K1 cells (American Type Tissue Collection, Manassas, VA) transfected to express human, mouse, rat, rabbit, dog, or rhesus monkey OX1R or OX2R receptors, as described previously. The kinetics of binding to human OX2R was assessed by radioligand displacement on CHO-K1 cells expressing the receptor. […] The ON rate analysis was performed by presoaking GF/B filters in 0.3% polyethyleneimine (Sigma) using a Skatron 12-well cell harvester and cold buffer at the indicated time points after addition. For OFF rate determination, binding reactions were allowed to proceed to equilibrium and terminated with 1000x [Kd] of unlabeled antagonist and filtered as above at pre-determined time points. Ultima Gold^TM (PerkinElmer 6013327) scintillation cocktail was added to each filter disc and counted on a PerkinElmer TriCarb 2910 scintillation counter. Data were analyzed using GraphPad® Prism v 6.04 (San Diego, CA, USA). The KON rate was determined according to the equation, KON = (KOBS − KOFF)/[ligand].
On the technique in general: A change in cytosolic calcium serves as a functional read-out for many receptors and channels.

Experiment [2] has as its target T2, OX2R (Canis lupus familiaris, UniProt Q9TUP7).
T2 construct: expressed in transfected cells; host or cells: CHO-K1
T2 sequence (Q9TUP7 1-444): T1 sequence (O43614 1-444) with S19P, I70V, V196M, F197L, V272A, P281Q, M286I, I308V, A334T, I417V
The experiment is described as follows: Inhibition of orexin-peptide-A-induced calcium mobilization in CHO cells, dog OX2R. Conditions: for fold OX2R selectivity (Kb): OX1R Kb / OX2R Kb. Format: cell-based. On the procedure:
as §1, §2

Experiment [3] concerns the target T3, OX1R (Mus musculus, UniProt P58307).
T3 construct: expressed in transfected cells; host or cells: CHO-K1
T3 sequence (P58307 1-416): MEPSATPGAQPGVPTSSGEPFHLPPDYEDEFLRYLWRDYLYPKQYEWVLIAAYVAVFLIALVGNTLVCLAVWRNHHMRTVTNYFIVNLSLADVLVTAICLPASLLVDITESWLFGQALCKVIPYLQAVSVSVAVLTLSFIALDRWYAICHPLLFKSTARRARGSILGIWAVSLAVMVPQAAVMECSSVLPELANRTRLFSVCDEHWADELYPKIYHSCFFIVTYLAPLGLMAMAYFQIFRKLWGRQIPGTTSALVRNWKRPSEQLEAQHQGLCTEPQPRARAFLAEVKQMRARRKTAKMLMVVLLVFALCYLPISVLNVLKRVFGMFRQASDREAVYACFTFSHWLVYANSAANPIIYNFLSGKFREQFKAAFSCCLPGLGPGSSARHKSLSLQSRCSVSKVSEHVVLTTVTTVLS
In words: Radio-ligand displacement binding, CHO-K1 membranes, mouse OX1R. Conditions: read-out: OX1R affinity (Ki). On the procedure: as §1, §2

In experiment [4] the target is T4, OX1R (Macaca mulatta, UniProt F7FE63).
T4 sequence (F7FE63 1-425): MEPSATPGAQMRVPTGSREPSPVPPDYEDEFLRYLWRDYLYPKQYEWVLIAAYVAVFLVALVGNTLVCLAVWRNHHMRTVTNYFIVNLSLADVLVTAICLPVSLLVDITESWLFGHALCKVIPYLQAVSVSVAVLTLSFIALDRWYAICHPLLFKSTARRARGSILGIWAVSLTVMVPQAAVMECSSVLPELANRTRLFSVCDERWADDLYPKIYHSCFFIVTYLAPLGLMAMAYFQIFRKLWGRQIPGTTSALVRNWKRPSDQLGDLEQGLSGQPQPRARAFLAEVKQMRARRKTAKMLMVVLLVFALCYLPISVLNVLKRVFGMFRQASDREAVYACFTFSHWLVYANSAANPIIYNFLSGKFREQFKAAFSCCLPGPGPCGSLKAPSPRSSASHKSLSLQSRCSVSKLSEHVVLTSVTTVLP
In words: Inhibition of orexin-peptide-A-induced calcium mobilization in CHO cells, rhesus OX1R. Format: cell-based, rhesus monkey. As for the experimental part:
as §1, §2

For experiment [5], the target named is T5, OX1R (Canis lupus familiaris, UniProt A0A8I3RSX8).
T5 sequence (A0A8I3RSX8 1-427): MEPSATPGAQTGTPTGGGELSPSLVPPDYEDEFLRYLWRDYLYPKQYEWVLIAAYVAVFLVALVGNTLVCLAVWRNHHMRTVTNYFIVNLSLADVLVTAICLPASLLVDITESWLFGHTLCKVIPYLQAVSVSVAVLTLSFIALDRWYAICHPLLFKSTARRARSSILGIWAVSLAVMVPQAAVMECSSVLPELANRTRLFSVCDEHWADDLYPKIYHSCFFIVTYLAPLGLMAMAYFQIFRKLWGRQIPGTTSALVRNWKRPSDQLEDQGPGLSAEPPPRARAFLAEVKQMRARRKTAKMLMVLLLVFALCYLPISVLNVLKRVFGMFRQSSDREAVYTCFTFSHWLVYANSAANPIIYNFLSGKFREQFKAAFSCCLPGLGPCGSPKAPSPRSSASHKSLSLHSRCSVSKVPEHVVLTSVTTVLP
The experiment is described as follows: Inhibition of orexin-peptide-A-induced calcium mobilization in CHO cells, dog OX1R. Format: cell-based. As for the experimental part:
as §1, §2

SMILES strings stand for the structures. Substitutions are numbered along the chain they refer to. Where only a bound is given, the exact number is not on record here.

What is called Ki is the equilibrium dissociation constant of an inhibitor or competing ligand from its target.

As to `COc1ccc(CNC(=O)c2cc(-c3cc(Cl)cc(Cl)c3)cnc2-c2cccnc2)cc1OC` [2-SORA-18], the Kb in experiment [1] turned out to be 0.018 µM; in experiment [2] it was 0.027 µM; in experiment [4], 0.141 µM; in experiment [5], 0.087 µM. Moreover, the “fold OX2R selectivity (Kb)” value is “[9] fold” in experiment [1] and “[3] fold” in experiment [2]. In addition, in experiment [3], the Ki was determined as 0.098 µM.
For the compound `COc1ccc(CNC(=O)c2cc(-c3cncc(C)c3)ncc2-c2nccs2)nc1OC` [MK-3697], the Kb in experiment [1] is 0.014 µM; in experiment [2], 0.016 µM; in experiment [4], 21.4 µM; in experiment [5] it was more than 10 µM. The Ki in experiment [3] turned out to be 3.95 µM.
On to `Cc1ccc(-c2ncccn2)c(C(=O)N2C[C@H](COc3ccc(F)cn3)CC[C@H]2C)c1` [MK-6096], for which the Kb in experiment [1] was determined as 0.011 µM; in experiment [2], 0.01 µM; in experiment [4] it was 0.021 µM; in experiment [5] it was 0.01 µM. Also, the “fold OX2R selectivity (Kb)” value in experiment [1] and in experiment [2] was “[1.0] fold” each time. Also, the Ki in experiment [3] came to 0.0029 µM.
`COc1ccc(CNC(=O)c2cc(-c3cncc(Cl)c3)cnc2-c2ccccn2)nc1OC` [MK-1064, 5″-chloro-N-[(5,6-dimethoxypyridin-2-yl)methyl]-2,2′:5′, 3″-terpyridine-3′-carbo xamide]: the Kb in experiment [1] is 0.009 µM; in experiment [2], 0.011 µM; in experiment [4] it was 3.37 µM; in experiment [5] it was 3.7 µM. Moreover, the “fold OX2R selectivity (Kb)” value in experiment [1] was “[208] fold”; in experiment [2] it was “[337] fold”. For the same compound, the Ki in experiment [3] turned out to be 1.16 µM.
`COc1ccc(CNC(=O)c2cc(-c3cncc(C)c3)ncc2-c2ccccc2)nc1OC` [2-SORA-7]: the Kb in experiment [1] was 0.012 µM; in experiment [2], 0.013 µM; in experiment [4] it was 3.65 µM; in experiment [5], more than 10 µM. In addition, the “fold OX2R selectivity (Kb)” value is “[363] fold” in experiment [1] and “[>769] fold” in experiment [2]. Besides, in experiment [3], the Ki was 1.69 µM.
